# Measured values from the NIST ThermoML archive (doi:10.1016/j.jct.2013.12.029).
# Numbers after ± are expanded uncertainties.
# Conditions: 293 K; 101.33 kPa; Liquid; Vibrating tube method
row,Compound,mass density [kg/m3]
1,CCCCCC[N+]1(C)CCCCC1.O=S(=O)([N-]S(=O)(=O)C(F)(F)F)C(F)(F)F,1329.5 ± 1.1

# Same assay, conditions: 298.15 K; 101.33 kPa; Liquid; Vibrating tube method
row,Compound,mass density [kg/m3]
1,CCC[N+]1(C)CCCCC1.O=S(=O)([N-]S(=O)(=O)C(F)(F)F)C(F)(F)F,1409.8 ± 1.1
2,CCCCCCC [heptane],679.54 ± 1
3,CC(C)=O [acetone],785.32 ± 1
4,c1ccsc1 [thiophene],1058.92 ± 1
5,CCCC[N+]1(C)CCCCC1.O=S(=O)([N-]S(=O)(=O)C(F)(F)F)C(F)(F)F,1379.2 ± 1.1
6,CCCCCC[N+]1(C)CCCCC1.O=S(=O)([N-]S(=O)(=O)C(F)(F)F)C(F)(F)F,1325.4 ± 1.1
7,c1ccc2sccc2c1 [benzo[b]thiophene],1427 ± 1
8,CCCO [propan-1-ol],799.52 ± 1
